Converted amounts (≈) assume the structure as drawn.
Tested on: Staphylococcus aureus
Assay: Antibacterial activity against Staphylococcus aureus ATCC 29213 by CLSI method
Type: functional

MIC [µg/mL]	Compound
40 (≈ 86.1 µM)	Oc1cc(C/C=C\Cc2c(Br)c(O)cc(O)c2Br)c(O)cc1Cl
10 (≈ 20 µM)	Oc1cc(C/C=C(/Cl)Cc2c(Br)c(O)cc(O)c2Br)c(O)cc1Cl
10 (≈ 15.5 µM)	Oc1cc(O)cc(C/C(Cl)=C\Cc2cc(O)c(-c3c(O)cc(C/C(Cl)=C\Cc4cc(O)c(Cl)cc4O)cc3O)cc2O)c1
40 (≈ 78.6 µM)	Oc1cc(C/C=C\Cc2c(Br)c(O)cc(O)c2Br)c(O)cc1Br

Reference: ChEMBL document CHEMBL4371100, “Antimicrobial Chrysophaentin Analogs Identified from Laboratory Cultures of the Marine Microalga Chrysophaeum taylorii” (2019)
